# From patent publication US20050228180A1, “Alpha, omega-dicarboximide derivatives as useful uro-selective a1a adrenoceptor blockers” (priority 2002, published 2005)
# Where a name gives a salt, the structure may show the parent alone.
# Key:
# [1] = target: T1, α1A adrenoceptor (Rattus norvegicus, UniProt P43140); assay: Radioligand binding, [3H] prazosin displacement, rat submaxillary membranes
# T1 construct: from tissue; host or cells: rat submaxillary gland membranes
# T1 sequence (P43140 1-466): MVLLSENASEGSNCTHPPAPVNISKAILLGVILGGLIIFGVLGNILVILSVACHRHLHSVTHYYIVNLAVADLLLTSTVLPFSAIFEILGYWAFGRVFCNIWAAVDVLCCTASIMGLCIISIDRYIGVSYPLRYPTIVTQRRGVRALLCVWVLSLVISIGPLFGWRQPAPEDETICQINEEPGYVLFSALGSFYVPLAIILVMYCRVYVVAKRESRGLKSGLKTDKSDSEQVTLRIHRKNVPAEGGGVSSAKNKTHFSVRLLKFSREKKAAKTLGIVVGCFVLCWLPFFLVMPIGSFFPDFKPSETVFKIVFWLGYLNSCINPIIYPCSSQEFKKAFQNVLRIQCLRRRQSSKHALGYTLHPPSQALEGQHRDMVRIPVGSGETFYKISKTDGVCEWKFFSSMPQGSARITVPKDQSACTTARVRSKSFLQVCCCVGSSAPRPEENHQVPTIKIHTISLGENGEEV
# How it was run: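 Rat membranes (submaxillary for α1A, liver for α1B; 150-250 μg protein) incubated with [3H]prazosin and compound in Tris 50 mM/EDTA 5 mM pH 7.4, 1 h at 24-25° C. Nonspecific binding with 300 nM prazosin; filtration, counting; Ki via Cheng–Prusoff.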
# [2] = test system: conscious beagle dogs; assay: In vivo uroselectivity study: phenylephrine response on MAP and IUP; parameters: species or system dog; details: 30 μg/kg p.o.
# Description: In order to assess the uroselectivity in vivo, the effects of these compounds were studied on mean arterial pressure (MAP) and intraurethral pressure (UP) in conscious beagle dogs as per the method of Brune et al. (Pharmacol., 1996, 53:356). Briefly, male dogs were instrumented for chronic continuous measurement of arterial blood pressure by implanting a telemetry transmitter (TL11M2-D70-PCT, Data Sci. International, St. Paul, Minn. USA) into the femoral artery, two weeks prior to the study. During the recovery period, the animal was acclimatized to stay in the sling restraint. On the day of testing, overnight fasted animal was placed in the sling restraint. A Swan-Ganz. Balloon tipped catheter was introduced into the urethra at the level of prostate and the balloon was inflated (Brune. et. al. 1996). After recording the base line readings, effect of 16 μg/kg, phenylephrine (i.v.) on MAP and IUP was recorded. The response of phenylephrine to MAP and […] were recorded at 0.5, 1, 2, 3, 4, 6, 9 and 24 hours after the oral administration of vehicle or the test drug. The changes in MAP were recorded on line using Dataquest Software (Data Sci. International, St. Paul, Minn. USA). The change in phenylephrine response on […] administration after the test drug administration was calculated as percent change of that of control values. Area under curve was calculated, and the ratio of the values for MAP and IUP was used for calculating the uroselectivity (Table III).
# [3] = percent change of phenylephrine response over 24 hours
structure (smiles),measurement,setting,value
"CC(C)Oc1ccccc1N1CCN(CCCN2C(=O)C3CC(O)C(O)CC3C2=O)CC1 (centres unmarked) [Compound No. 23, 2-[3-{4-(2-Isopropoxyphenyl)piperazin-1-yl}propyl]-5,6-dihydroxy-3a,4,5,6,7,7a, hexahydro-1H-isoindole-1,3(2H)-dione-hydrochloride]",Ki,"[1]; [3H] prazosin displacement, rat submaxillary membranes, read-out: Affinity (Ki) α1A (Rat Submaxillary)",0.98 nM
same,α1B/α1A,"[1]; ratio of binding affinities, rat liver / rat submaxillary",130
same,Uroselectivity Ratio IUP/MAP,[2],5.5
same,Area Under Curve IUP,[2]; [3],524
same,Area Under Curve MAP,[2]; [3],95
